Target: Glutamate--tRNA ligase (Escherichia coli) (UniProt P04805)
Assay: Compound was tested for the inhibition of Escherichia coli glutamyl-t-RNA synthetase; NI means No inhibition; call rule not given here

Sequence of Glutamate--tRNA ligase (Escherichia coli) (P04805 whole entry, looked up): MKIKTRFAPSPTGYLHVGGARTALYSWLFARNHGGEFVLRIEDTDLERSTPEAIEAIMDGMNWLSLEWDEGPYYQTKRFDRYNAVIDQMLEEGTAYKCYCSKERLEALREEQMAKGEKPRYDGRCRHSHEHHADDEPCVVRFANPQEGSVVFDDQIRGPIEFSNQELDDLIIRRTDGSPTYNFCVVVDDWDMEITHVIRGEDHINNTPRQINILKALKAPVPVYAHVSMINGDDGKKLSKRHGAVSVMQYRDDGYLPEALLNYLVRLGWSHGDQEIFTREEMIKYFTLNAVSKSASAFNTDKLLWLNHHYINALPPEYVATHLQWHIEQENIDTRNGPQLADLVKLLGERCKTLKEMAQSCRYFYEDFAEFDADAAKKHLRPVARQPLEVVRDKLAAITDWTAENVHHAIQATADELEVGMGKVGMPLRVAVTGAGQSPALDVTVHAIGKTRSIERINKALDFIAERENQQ

Ki: Not Active
SMILES: CCCCCCCCOC(=O)C(N)CCC(=O)O (stereo unspecified)
